# Measured values taken from paper PMC10590419, “Structural and mechanistic insights into the inhibition of respiratory syncytial virus polymerase by a non-nucleoside inhibitor” (Communications Biology, 2023).
# Like-named read-outs stand apart in the source and are kept apart here.
# Columns and labels:
# [1] = test system: RSV A2 replicon in APC-126 cells; experiment: RSV subgenomic replicon (minireplicon) assay, luciferase; assay type: cell-based; conditions: human respiratory syncytial virus, APC-126, 72 h, read-out: Median EC50
# Experimental: The RSV subgenomic replicon system was licensed from Apath (Apath, NY, USA)[49],[50]. The BHK-derived cell line (APC-126) containing the stable RSV A2 replicon was cultured in DMEM/Hams F-12 medium supplemented with 10% (v/v) FBS (Gibco), 1% (v/v) penicillin (10,000 units/mL) and streptomycin (10,000 µg/mL) solution (Gibco), 1% (v/v) MEM non-essential amino acids solution (Gibco), 5% (v/v) Tryptose Phosphate Broth solution (29.5 g/l) (Sigma-Aldrich) and 10 µg/ml of blasticidin solution (Invivogen). Cells were maintained at 37 °C in a humidified 5% CO2 atmosphere. 5000 cells were plated in 96-well clear plates (Corning) in 100 µl/well of medium. […] Cell viability (CC50 and CC90) was measured with a CellTiter-Glo cell proliferation assay (Promega, 100 µl/well of reagent). Results were expressed as EC50 and EC90 values as well as CC50 and CC90 values.
# [2] = test system: rVSV (Indiana strain-derived, luciferase reporter); experiment: microbe, parasite or virus in culture; assay type: cell-based, vesicular stomatitis virus
# recombinant RSV L+P = recombinant RSV L+P (Human respiratory syncytial virus A, UniProt P28887); experiment: De novo RNA synthesis assay, recombinant RSV L+P, Tr14 template; assay type: biochemical, Human RSV (strain A2)
# recombinant RSV L+P, sequence (P28887 whole entry): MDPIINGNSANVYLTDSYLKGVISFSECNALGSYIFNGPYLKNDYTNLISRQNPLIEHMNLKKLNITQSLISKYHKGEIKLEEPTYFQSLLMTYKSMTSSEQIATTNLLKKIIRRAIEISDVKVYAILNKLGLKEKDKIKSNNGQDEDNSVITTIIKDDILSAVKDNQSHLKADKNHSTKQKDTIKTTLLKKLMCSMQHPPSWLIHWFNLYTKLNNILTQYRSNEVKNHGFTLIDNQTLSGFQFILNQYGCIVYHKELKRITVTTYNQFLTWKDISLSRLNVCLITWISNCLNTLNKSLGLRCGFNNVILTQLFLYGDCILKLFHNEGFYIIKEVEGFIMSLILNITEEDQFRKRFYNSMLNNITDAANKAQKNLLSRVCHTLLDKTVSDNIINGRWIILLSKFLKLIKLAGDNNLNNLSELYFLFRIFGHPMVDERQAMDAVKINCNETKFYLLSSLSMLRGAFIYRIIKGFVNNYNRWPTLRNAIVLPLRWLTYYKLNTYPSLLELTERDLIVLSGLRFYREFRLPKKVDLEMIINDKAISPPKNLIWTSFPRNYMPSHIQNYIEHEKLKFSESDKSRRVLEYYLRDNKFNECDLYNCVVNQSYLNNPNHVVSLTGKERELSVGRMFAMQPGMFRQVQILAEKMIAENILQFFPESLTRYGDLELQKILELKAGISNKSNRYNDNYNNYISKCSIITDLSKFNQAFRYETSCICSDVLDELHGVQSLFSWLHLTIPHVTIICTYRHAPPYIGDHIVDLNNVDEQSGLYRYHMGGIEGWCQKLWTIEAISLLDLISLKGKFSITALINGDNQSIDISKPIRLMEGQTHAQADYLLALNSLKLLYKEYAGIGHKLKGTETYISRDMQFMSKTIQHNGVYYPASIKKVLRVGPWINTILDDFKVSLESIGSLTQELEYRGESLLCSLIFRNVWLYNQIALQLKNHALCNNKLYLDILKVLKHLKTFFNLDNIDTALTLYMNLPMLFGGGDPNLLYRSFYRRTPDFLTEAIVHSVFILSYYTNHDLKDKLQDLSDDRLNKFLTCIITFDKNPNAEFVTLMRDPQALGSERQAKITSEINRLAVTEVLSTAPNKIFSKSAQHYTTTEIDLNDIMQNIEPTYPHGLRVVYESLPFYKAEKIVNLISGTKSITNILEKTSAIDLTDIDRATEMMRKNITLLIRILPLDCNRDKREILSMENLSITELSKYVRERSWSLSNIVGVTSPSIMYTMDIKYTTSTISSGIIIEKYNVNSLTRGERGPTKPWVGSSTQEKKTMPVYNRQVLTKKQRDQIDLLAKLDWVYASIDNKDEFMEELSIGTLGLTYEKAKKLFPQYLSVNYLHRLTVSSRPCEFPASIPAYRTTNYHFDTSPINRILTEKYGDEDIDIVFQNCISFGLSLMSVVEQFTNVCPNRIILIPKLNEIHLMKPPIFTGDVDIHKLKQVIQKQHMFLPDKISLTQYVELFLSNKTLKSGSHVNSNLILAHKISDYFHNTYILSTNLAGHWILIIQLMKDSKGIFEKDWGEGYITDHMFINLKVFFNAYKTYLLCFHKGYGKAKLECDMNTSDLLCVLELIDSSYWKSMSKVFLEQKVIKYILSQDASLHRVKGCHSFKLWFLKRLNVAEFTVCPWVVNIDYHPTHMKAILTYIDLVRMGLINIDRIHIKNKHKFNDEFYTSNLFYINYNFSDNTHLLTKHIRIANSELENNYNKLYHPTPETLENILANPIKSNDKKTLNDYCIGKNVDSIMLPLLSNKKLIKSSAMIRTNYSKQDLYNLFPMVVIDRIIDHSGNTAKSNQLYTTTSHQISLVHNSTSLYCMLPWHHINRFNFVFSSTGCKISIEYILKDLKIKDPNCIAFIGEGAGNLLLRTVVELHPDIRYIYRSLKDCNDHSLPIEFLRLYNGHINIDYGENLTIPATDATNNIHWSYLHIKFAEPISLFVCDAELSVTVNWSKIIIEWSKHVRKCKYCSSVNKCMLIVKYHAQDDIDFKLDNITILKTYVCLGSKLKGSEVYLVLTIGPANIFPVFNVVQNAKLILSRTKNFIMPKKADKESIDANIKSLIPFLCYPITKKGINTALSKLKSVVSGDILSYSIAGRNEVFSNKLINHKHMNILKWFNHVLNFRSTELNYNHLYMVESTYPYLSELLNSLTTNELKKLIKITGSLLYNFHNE
# recombinant RSV L+P, sequence (P03421 whole entry, further chain): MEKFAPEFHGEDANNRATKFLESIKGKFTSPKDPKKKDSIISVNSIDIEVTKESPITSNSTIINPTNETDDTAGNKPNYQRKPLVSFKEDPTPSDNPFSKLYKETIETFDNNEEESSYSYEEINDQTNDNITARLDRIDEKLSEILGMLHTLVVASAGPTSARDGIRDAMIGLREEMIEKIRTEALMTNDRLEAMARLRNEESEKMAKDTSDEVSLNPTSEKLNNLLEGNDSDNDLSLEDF
# Experimental: The reactions were performed as described by Cressey et al.[22]. […] The reactions were incubated at 30 °C for 1 h and then stopped by adding gel loading buffer containing 90% formamide, 50 mM EDTA, 0.05% Xylene Cyanol and Bromophenol Blue. Samples were denatured at 95 °C for 5 min and run on a 22.5% polyacrylamide urea sequencing gel at 80 W with radiolabeled RNA markers generated via the T7 DNA dependent RNA polymerase (DdRp). The gel was dried, exposed to a phosphor-screen, scanned on a Typhoon scanner (GE Healthcare), and quantified using ImageQuant (GE Healthcare). Bands were identified as extension products or initiation products by the 11-nucleotide ppp[…] and 2-nucleotide pppGA RNA markers, respectively. Radiolabeled RNA markers corresponding to pppGA, ppp[…], and intermediates were generated utilizing a reaction by T7 DNA-dependent RNA polymerase (AM2718, Ambion)[53]. DNA oligos: 5’-[…]-3’ (T7 promoter primer) and 5’-[…]-3’ (T7 promoter primer + target sequence template) were synthesized at IDT. Due to a mechanistic idiosyncrasy in T7 DdRp, an additional Adenosine residue was placed between the T7 promoter and the target sequence in the template. Each 40 µl reaction contained 5 mM ATP, 5 mM CTP, 5 mM GTP, 100 nM annealed DNA primer and template, 20 U T7 DdRp, 1x T7 DdRp Buffer (40 mM Tris pH 7.8, 20 mM NaCl, 6 mM MgCl2, 2 mM Spermidine HCl, 10 mM DTT), and 20 µCi of [α-^33P]ATP. Reactions were incubated at 30 °C for 5 h. Then 1 µl of reconstituted DNase I (Ambion) was added and incubated for an additional 10 min at 37 °C. This reaction was quenched with the addition of 60 µl gel loading buffer.
# Supplementary Figure 4. Inhibition of de novo initiation and extension of RSV L-P RNA synthesis by JNJ-8003. a. reaction scheme. b. a sequencing gel image showing RNA products […]
# contained 10 nM RSV L-P, 2 μM RNA template (Tr14), 500 μM GTP, 10 μM ATP, 170 nM [α-33P]ATP, so RNA synthesis started from +3 site and paused with a major 11-mer product. c.
# Data was from the quantitation results of the gel image in b. d. The reactions […]
# Data points indicate the mean, and error bars depict the SD of three technical replicates. e. a sequencing gel image showing RNA products synthesized by RSV L-P along with no enzyme control. Reaction condition was same as in b with no compound added. […]
# [3] = repeat in triplicate, 0.093 nM to 200 nM
compound,measurement,setting,value
COc1cc(C(=O)NC[C@](O)(c2cc(C(C)(C)O)c(F)c(-c3ccc(F)cc3)n2)C(F)(F)F)cc2cc(C)nnc12 [JNJ-8003],EC50,[1],0.15 nM
same,inhibition (in words),[2],negligible inhibition
same,EC50,"[2]; Vesicular stomatitis virus, A549, read-out: Median EC50",> 25 µM
same,"maximal inhibition, 11-mer product",recombinant RSV L+P; 9.3 pM to 200 μM,99%
same,"maximal inhibition, de novo pppGpA formation",recombinant RSV L+P; 9.3 pM to 200 μM,65%
same,IC50,"recombinant RSV L+P; 9.3 pM to 200 μM, read-out: IC50, 11-mer product",4.7 nM
same,IC50,"recombinant RSV L+P; +3 site, tr-14, 9.3 pM to 200 μM, read-out: IC50, de novo pppGpA dinucleotide formation",5.1 nM
same,"maximal inhibition, 11-mer product",recombinant RSV L+P; [3],100%
same,"maximal inhibition, de novo pppGpA formation",recombinant RSV L+P; [3],69%
same,IC50,"recombinant RSV L+P; repeat in triplicate, 0.093 nM to 200 nM, read-out: IC50, 11-mer product",3.6 nM
same,IC50,"recombinant RSV L+P; repeat in triplicate, 0.093 nM to 200 nM, read-out: IC50, de novo pppGpA formation",2.3 nM
